The values below come from patent US7273951B2, “Polyhydroxy phenols and their use in binding p-selectin” (Astellas Pharma Inc., priority 2003, dated 2007).

For series [1], the target named is T1, human P-selectin (Homo sapiens, UniProt P16109).
T1 construct: purchased R&D Systems Europe Ltd., Abingdon, United Kingdom
The experiment in a line: Competition assay of gallic acid with TM11-PO. It counts as binding. The protocol:
(§1) Gallic acid (Acros, Geel, Belgium) was assayed for its ability to inhibit TM11-PO binding to human P-selectin. […] For competition studies, a 96 wells microtiter plate (high binding, flat bottom, Costar, Corning, U.S.A.) was coated overnight at 4° C. with 10 μg/ml goat anti-human IgG (Fc specific) (Sigma-Aldrich, Zwijndrecht, the Netherlands) in coating buffer (50 mM NaHCO3, pH 9.6). Subsequently, wells were washed with assay buffer and incubated for 1 hour at 37° C. with blocking buffer (3% BSA in assay buffer). After washing with assay buffer, the wells were incubated for 2 hours at 37° C. with the human P-selectin IgG-Fc chimera (R&D Systems Europe Ltd., Abingdon, United Kingdom) (0.3 μg/ml). Subsequently, wells were washed with assay buffer and incubated for 1 hour at 4° C. with the TM11-PO complex. The wells were washed six times with washing buffer (0.1% Tween 20 in assay buffer). […] (TMB)/hydrogen peroxide (H2O2) (Pierce, Rochford, U.S.A.) was added and wells were incubated at room temperature for 15 minutes. The reaction was halted by addition of 2 M H2SO4 and the absorbance was measured at 450 nm.

For series [2], the target named is T1, human P-selectin. Nature of the series: Competition assay with biotin-PAA-Le^a-SO3H. The note with it: read-out: IC50, inhibition of biotin-PAA-Le^a-SO3 binding to human P-selectin. The protocol:
as §1
(§2) To be able to test gallic acid binding also to other members of the selectin family (i.e. E- and L-selectin), biotin-PAA-Le^a-SO3H (Synthesone, Munich, Germany) instead of TM11-PO was used as ligand in the competition assay. This polyacrylamide (PAA) based polymer with attached sulfo-Lewis A groups, is an established selectin ligand.
(§3) Experimentally, the same procedure was used as in example 7 however with the following differences. After washing with assay buffer, the wells were incubated for 2 hours at 37° C. with the human P-selectin IgG-Fc chimera, mouse P-selectin IgG-Fc chimera, human L-selectin IgG-Fc chimera and human E-selectin IgG-Fc chimera respectively (all from R&D Systems Europe Ltd., Abingdon, United Kingdom) (0.3 μg/ml). Subsequently the wells of the microtiter plate were incubated with biotin-PAA-Le^a-SO3H (0.33 μg/ml) for 2 hours at 37° C., instead of with the TM11-PO-complex.

For the next series, the target named is T2, human E-selectin (Homo sapiens, UniProt P16581).
T2 construct: purchased R&D Systems Europe Ltd., Abingdon, United Kingdom
T2 sequence (P16581 with tags, fused parts or gaps limits assumed): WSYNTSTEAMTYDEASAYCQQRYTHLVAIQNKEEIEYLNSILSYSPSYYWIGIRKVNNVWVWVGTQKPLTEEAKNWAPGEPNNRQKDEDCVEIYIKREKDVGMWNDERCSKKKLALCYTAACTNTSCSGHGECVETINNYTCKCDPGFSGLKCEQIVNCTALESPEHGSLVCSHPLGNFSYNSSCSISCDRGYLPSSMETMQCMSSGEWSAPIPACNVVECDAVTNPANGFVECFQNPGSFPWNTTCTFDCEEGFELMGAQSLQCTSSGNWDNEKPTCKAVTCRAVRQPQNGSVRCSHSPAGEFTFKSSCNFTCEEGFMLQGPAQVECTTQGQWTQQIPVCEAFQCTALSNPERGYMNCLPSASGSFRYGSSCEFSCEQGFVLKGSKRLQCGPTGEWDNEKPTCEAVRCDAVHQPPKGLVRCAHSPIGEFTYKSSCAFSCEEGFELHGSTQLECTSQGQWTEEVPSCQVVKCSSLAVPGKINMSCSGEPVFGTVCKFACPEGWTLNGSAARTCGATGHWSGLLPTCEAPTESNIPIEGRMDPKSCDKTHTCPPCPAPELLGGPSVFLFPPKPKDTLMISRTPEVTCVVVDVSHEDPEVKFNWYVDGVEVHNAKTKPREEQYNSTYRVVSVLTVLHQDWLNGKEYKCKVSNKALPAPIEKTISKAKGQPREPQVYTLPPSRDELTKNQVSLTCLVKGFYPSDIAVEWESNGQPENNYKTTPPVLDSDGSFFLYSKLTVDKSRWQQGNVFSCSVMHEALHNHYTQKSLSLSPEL
Nature of the series: Competition assay with biotin-PAA-Le^a-SO3H. In kind it is binding. Conditions: concentrations up to 1 mM; biotin-PAA-Le^a-SO3H ligand. The protocol:
as §1, §2, §3

Another series addresses T3, human L-selectin (Homo sapiens, UniProt P14151).
T3 construct: purchased R&D Systems Europe Ltd., Abingdon, United Kingdom
Nature of the series: Competition assay with biotin-PAA-Le^a-SO3H. It counts as binding. The protocol:
as §1, §2, §3

In a further series the target is T4, mouse P-selectin (Mus musculus, UniProt Q01102).
T4 construct: purchased R&D Systems Europe Ltd., Abingdon, United Kingdom
T4 sequence (Q01102 with tags, fused parts or gaps limits assumed): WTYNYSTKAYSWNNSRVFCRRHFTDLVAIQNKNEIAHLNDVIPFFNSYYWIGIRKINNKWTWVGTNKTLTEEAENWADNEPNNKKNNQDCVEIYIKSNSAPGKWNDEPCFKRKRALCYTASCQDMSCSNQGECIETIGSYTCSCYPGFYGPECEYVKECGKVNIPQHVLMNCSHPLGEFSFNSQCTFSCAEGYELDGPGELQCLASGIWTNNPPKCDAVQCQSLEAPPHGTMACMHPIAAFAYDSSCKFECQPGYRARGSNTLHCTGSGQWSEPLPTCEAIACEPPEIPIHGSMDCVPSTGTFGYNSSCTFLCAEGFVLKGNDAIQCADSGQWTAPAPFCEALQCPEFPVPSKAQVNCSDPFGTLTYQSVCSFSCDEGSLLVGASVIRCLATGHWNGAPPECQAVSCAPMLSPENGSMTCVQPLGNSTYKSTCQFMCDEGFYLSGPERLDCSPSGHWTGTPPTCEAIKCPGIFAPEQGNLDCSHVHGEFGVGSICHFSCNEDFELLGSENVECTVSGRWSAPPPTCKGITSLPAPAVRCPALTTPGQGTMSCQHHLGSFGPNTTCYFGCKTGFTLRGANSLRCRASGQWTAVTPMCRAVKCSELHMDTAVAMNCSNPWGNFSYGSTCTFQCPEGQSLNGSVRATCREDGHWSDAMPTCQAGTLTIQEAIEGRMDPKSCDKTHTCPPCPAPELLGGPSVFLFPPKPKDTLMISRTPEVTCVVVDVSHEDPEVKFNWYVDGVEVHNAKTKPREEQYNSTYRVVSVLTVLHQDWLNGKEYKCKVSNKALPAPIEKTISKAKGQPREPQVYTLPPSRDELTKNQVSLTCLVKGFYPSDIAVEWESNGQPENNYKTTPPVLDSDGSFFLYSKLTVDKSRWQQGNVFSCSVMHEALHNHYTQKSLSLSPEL
Nature of the series: Competition assay with biotin-PAA-Le^a-SO3H. It counts as binding. Conditions: biotin-PAA-Le^a-SO3H ligand. The protocol: as §1, §2, §3

Series [3] has as its system HL60 cells / human P-selectin expressing Chinese hamster ovary cells (CHO-P). The experiment in a line: Dynamic interactions between HL60 cells and CHO-P monolayers in parallel-plate perfusion chamber. It counts as cell-based. The protocol:
Chinese hamster ovary (CHO) cells stably transfected with human P-selectin (CHO—P) were kindly donated by Dr. Modderman (University of Amsterdam, Amsterdam, the Netherlands). Cells were grown in DMEM (BioWhittaker Europe, Verviers, Belgium) containing 10% foetal calf serum (FCS) (BioWitthaker), 5 mM L-glutamine, 20,000 units penicillin/streptomycin (BioWhittaker) and 5 mM non-essential amino acids (Gibco, Paisley, United Kingdom). Flasks with cells were incubated at 37° C. in 5% CO2 for 3 or 4 days until cells had grown nearly confluent.
HL60 cells were from ATCC and grown in RPMI 1640 medium (BioWhittaker) with 10% FCS, 5 mM L-glutamine and 20,000 units penicillin/streptomycin.
Dynamic interactions between […], displaying a high expression of PSGL-1, the natural P-selectin ligand, and human P-selectin expressing Chinese hamster ovary cell (CHO—P cells) monolayers grown onto glass coverslips coated with 30 μg/ml collagen S (type I) (Roche Diagnosis, Brussels, Belgium) were analysed in a parallel-plate perfusion chamber with a method adapted from G. Theilmeier (Blood 1999, 94: 2725-2734). The coverslip constituted the bottom of the chamber and the actual chamber was formed by a 254-μm height silicon rubber gasket designed with a conically shaped flow path, thus resulting in a 3-fold increase of wall shear rate from the inlet of the chamber to the outlet. Calcein-AM labeled HL60 cells, suspended in RPMI (0.5×10^6/ml) were perfused at 37° C. and at a flow rate of 1 ml/min with an inverted syringe pump (Harvard Instruments, South Natick, Mass., U.S.A.). The flow chamber was mounted on the table platform of an inverted epifluorescence microscope (Diaphot; Nikon, Melville, N.Y., U.S.A.) coupled to a Cohu CCD video camera (COHU Inc, San Diego, Calif., U.S.A.) and HL60 cell translocation over CHO—P monolayers were measured at wall shear rates of 300 and 600 s-1. Gallic acid was added to HL60 cell suspensions 2 minutes before the onset of perfusion. To prevent oxidation, the gallic acid solution was prepared freshly. Real time movies of 12 seconds (10 images per second), recorded at predefined positions in the flow path corresponding to chosen wall shear rates were stored and digitised with a Scion LG3 frame grabber (Scion Corp, Frederick, Mich., U.S.A.). The average velocity of HL60 cells rolling over the CHO—P cells was calculated from the rolling distance of the HL60 cells in a 1 second timeframe, using the NIH Image program version 6.1. The number of adhered HL60 cells was counted from pictures taken during the same experiment.

Series [4] relates to leukocyte-platelet conjugates rolling over femoral vein endothelium. The experiment in a line: In vivo rolling/tumbling of leukocyte-platelet conjugates (rosettes) over femoral vein endothelium. On the set-up: species or system mice. The protocol:
Human blood was collected on 1:6 acid-citrate-dextrose (ACD: 93 mM trisodium citrate, 7 mM citric acid, 140 mM dextrose, pH 6.5) and 1 μM tirofiban. Human platelet rich plasma (PRP) was prepared via centrifugation at 150 g for 15 min. Murine blood was collected on 20 μg/ml hirudin and was centrifuged at 800 g for 30 sec, immediately followed by a second centrifugation at 150 g for 5 min to prepare PRP. The isolated PRP (human or murine) was then mixed with two volumes of ACD and recentrifuged at 800 g for 5 min. Subsequently, washed platelets were resuspended in HEPES-Tyrode's buffer (5 mM HEPES, 137 mM NaCl, 2.7 mM KCl, 12 mM NaHCO3, 0.36 mM NaH2PO4, 1% (w/v) glucose, pH 7.3) containing 1% (v/v) human serum albumin (HAS) at 10^6 platelets/μl. They were then incubated for 20 min at 37° C. with 5 μM calcein-AM, an acetoxymethyl ester, fluorescent once cleaved by non-specific esterases inside the cell, with no detectable effect on platelet function in our perfusion studies. The platelet suspension was then centrifuged at 700 g for 25 min and fluorescent platelets were resuspended in HEPES-Tyrode's buffer, and murine platelets were injected as such in mice.
All animal experiments were reviewed and approved by the Institutional Review Board of the University of Leuven and were performed in compliance with the guidelines of the International Society on Thrombosis and Haemostasis (Giles AR). For the study of platelet-assisted leukocyte rolling over the endothelial surface of blood vessels in vivo, on-line video microscopy was performed in mice. […] mice (6-12 weeks old) were anesthetized with Nembutal (70 mg/kg) via i.p. injection, and the jugular vein was catheterized. The femoral vein was exposed and mice were positioned on the table of an inverted epifluorescent microscope, such that the blood circulation in the femoral vein could be visualized through a Cohu CCD video camera. Fluorescent-labeled murine platelets were then injected in the catheterized jugular vein (500×10^6 platelets in 200 μl) and baseline rolling was recorded for the labeled platelets. […] After 5 min, the collagen-induced rolling and tumbling of leukocyte-platelet conjugates was then recorded for 10 min. The number of rosettes rolling were counted and their average tumbling speed was calculated from the registered movies. To address the effect of gallic acid on rosette rolling, it was infused 5 min prior to collagen administration and the rosette rolling was analysed as in the controls. […] Tumbling rosettes were counted 10 min after the collagen injection, before and after gallic acid infusion of 0.75 to 7.5 mg/kg.h. […]

For another series, the system named is platelets. The experiment in a line: TRAP-induced platelet aggregation in platelet-rich plasma. Conditions: for Maximal platelet aggregation: TRAP 6.5 μM, human PRP. It counts as cell-based, human. On the procedure: Freshly drawn venous blood from healthy volunteers was collected with an informed consent into 1/10 volume of 3.2% tri-sodium citrate (w/v). These donors denied to have taken aspirin or other platelet function inhibitors during the previous ten days. Platelet-rich plasma (PRP) was prepared by centrifugation (150 g, 15 min, 22° C.). PRP was adjusted to a final concentration of 200,000 platelets/μl with platelet-poor plasma (PPP), which was obtained after an additional centrifugation step of the remaining blood (1100 g, 15 min, 22° C.). PRP was left for 30 min at 37° C. to ensure a resting state of the platelets. Afterwards, PRP was incubated for 5 min with different concentrations of gallic acid, EGCG or solvent at 37° C. Samples were transferred to an aggregometer (Kordia BV, Leiden, The Netherlands) to determine platelet aggregation at a stirring speed of 900 r.p.m. Platelet aggregation was initiated after preincubation with different concentrations of GA or EGCG (0, 50, 250 and 500 μM) by the addition of thrombin receptor activating peptide (TRAP, 6.5 μM, 37° C.).

As a reminder, the IC50 is the concentration that inhibits the measured activity by half.

T1 sequence (P16109 with tags, fused parts or gaps limits assumed): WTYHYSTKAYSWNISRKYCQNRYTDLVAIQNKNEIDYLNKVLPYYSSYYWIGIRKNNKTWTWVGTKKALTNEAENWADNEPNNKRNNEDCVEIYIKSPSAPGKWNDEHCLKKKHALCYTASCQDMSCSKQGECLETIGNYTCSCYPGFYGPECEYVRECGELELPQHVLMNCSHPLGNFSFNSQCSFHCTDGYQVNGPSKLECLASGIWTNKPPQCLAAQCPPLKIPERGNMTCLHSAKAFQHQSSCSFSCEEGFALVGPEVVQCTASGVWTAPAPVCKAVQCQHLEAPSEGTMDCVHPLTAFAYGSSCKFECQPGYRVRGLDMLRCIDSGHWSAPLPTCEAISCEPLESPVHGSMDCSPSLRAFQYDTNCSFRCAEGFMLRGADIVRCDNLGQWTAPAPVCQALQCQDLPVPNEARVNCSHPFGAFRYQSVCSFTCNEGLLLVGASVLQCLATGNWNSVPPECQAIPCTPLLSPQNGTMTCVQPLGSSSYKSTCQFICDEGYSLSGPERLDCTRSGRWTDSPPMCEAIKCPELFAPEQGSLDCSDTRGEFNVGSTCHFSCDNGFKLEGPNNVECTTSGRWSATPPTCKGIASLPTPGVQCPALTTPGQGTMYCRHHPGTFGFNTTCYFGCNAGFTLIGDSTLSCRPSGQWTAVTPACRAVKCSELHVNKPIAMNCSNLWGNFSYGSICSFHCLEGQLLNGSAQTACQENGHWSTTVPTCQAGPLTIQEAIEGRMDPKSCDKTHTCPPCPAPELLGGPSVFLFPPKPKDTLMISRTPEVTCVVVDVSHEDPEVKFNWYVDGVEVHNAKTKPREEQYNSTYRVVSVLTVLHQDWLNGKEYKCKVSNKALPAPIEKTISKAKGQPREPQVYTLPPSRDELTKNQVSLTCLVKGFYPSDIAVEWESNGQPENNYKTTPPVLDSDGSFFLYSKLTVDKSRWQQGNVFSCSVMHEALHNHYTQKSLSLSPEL
T3 sequence (P14151 with tags, fused parts or gaps limits assumed): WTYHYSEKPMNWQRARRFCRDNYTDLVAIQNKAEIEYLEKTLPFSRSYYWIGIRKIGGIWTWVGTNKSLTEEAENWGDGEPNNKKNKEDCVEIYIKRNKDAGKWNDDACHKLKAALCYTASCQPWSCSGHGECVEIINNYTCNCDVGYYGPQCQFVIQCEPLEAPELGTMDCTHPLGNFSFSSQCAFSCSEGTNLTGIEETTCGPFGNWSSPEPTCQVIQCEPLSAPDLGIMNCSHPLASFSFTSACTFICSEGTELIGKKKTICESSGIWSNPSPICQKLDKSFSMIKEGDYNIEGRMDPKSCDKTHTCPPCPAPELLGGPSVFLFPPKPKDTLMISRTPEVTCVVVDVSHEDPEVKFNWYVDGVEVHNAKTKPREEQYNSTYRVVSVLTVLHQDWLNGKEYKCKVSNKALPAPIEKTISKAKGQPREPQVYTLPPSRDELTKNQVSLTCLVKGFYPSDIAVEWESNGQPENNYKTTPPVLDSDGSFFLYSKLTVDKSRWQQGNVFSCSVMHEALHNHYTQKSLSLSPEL

In the case of `O=C(O)c1cc(O)c(O)c(O)c1` [gallic acid, 3,4,5-trihydroxybenzoic acid], the IC50 at human P-selectin [1] is 7.2 µM; at human P-selectin [2], roughly 85 µM; at human L-selectin it was 241 µM. Besides, the “Inhibition of E-selectin binding” value at human E-selectin is “less than 20%”. Also, the “Binding to P-selectin, mouse versus human” value on mouse P-selectin is given as “species-independent”. Besides, the “Change of HL60 cell adhesion to CHO-P monolayer vs untreated control” value is −34% in series [3] (50 μM, wall shear rate 300 s^-1); −43% in series [3] (50 μM, wall shear rate 600 s^-1); −41% in series [3] (250 μM, wall shear rate 300 s^-1); −54% in series [3] (250 μM, wall shear rate 600 s^-1). Also, in series [3] (50 and 250 μM), the “Rolling velocity of HL60 cells across CHO-P monolayer” value is recorded as “doubled”. Also, in series [4] (C57/B16 mice (WT), FIG. 8A), the “Conjugate rolling over femoral vein endothelium, number of conjugates rolling per unit of surface” value is “Dose-dependent inhibition”. For the same compound, the “Rolling of preformed leukocyte-platelet conjugates, percentage of rolling in absence of gallic acid” value in series [4] (aged atherosclerotic ApoE-/- mice, FIG. 8B) is listed as “Inhibition”. Also, the “Effective plasma concentration corresponding to ED50” value in series [4] (mice, at ED50 of rosette tumbling) is 40 µM. For the same compound, in series [4] (mice, infusion 0.75 to 7.5 mg/kg.h, counted 10 min after collagen injection), the “ED50, dose giving half maximal inhibition of rosette tumbling” value is listed as 1.5±0.4 mg/kg.h. Besides, the Maximal platelet aggregation entry in the series with platelets (250 μM) is recorded as “no significant inhibition”; in the series with platelets (500 μM), “inhibit platelet aggregation significantly”.

Regarding (−)-epigallocatechin gallate [EGCG], the IC50 on human P-selectin [2] was 114 µM. In addition, the Maximal platelet aggregation result in the series on platelets (250 μM) is listed as “no significant inhibition”; in the series on platelets (500 μM), “inhibit platelet aggregation significantly”.

Turning to `CCCCCCCCCCCCOC(=O)c1cc(O)c(O)c(O)c1` [n-dodecyl gallate], on human P-selectin [2], the half-inhibitory concentration (IC50) is greater than 300 µM. The Platelet lysis entry in the series on platelets (human platelets, not usable in aggregation test) is “causes platelet lysis”.

Regarding `O=C(O)/C=C/c1ccc(O)c(O)c1` [caffeic acid], the concentration for half-maximal inhibition (IC50) at human P-selectin [2] is greater than 300 µM.

For the compound `O=C(O)c1ccc(O)cc1` [4-hydroxy benzoic acid], the half-maximal inhibitory concentration (IC50) on human P-selectin [2] is greater than 300 µM.
